From EP0055702B1, “Antithrombotic treatment” (priority 1980, dated 1982)

Target: T1, F IX (Homo sapiens, UniProt P00740)
T1 construct: from tissue; host or cells: human plasma
Test: Factor IX assay, Example 4
Format: biochemical
Set-up: F IX: unit not given beside the values
Conditions: for V IX: solution D; for V IX / F IX: Control 66
Description: The evaluation procedure used is that described in "Human Blood Coagulation, Haemostasis and Thrombosis", edited by Rosemary Biggs, published by Blackwell Scientific Publications, Oxford, England (2nd Edition), pages 670-705, 1976. […]

T1 sequence (P00740 47-461): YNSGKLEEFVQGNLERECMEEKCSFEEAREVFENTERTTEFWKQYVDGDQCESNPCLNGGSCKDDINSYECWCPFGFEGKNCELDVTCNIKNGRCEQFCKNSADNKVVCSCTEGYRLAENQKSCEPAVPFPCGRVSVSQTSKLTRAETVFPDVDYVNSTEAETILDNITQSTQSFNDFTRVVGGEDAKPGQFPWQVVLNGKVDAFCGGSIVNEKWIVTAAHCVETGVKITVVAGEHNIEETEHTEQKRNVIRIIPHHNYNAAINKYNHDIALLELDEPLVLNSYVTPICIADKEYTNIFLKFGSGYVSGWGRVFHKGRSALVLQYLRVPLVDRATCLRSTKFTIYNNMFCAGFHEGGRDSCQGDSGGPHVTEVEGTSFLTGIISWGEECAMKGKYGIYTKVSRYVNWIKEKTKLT

For Sodium bisulphite, the “effect on Factor IX” value (0.5 mg per ml, human plasma) was “significant inhibitory effect”, the “V IX” value (Sodium bisulphite 0.01 mg/ml) was 60% and the “V IX” value (Sodium bisulphite 0.05 mg/ml) was 52%. The “V IX” value (Sodium bisulphite 0.1 mg/ml) was 56%, the “V IX” value (Sodium bisulphite 0.5 mg/ml) was 4% and the “V IX” value (Sodium bisulphite 1.0 mg/ml) was 3%. The “V IX” value (Sodium bisulphite 5.0 mg/ml) was <1%, the “F IX” value (chemical grade sodium bisulphite 0.01 mg/ml) was 49 and the “F IX” value (chemical grade sodium bisulphite 0.05 mg/ml) was 44. The “F IX” value (chemical grade sodium bisulphite 0.1 mg/ml) was 40, the “F IX” value (chemical grade sodium bisulphite 0.5 mg/ml) was 5 and the “F IX” value (chemical grade sodium bisulphite 1.0 mg/ml) was 1. For the same substance, the “F IX” value (chemical grade sodium bisulphite 5.0 mg/ml) was <1.
